Test results: patent US20050069887A1, “Dna synthesis promoters dna polymerase-associated factors and utilization thereof” (priority 2001, published 2005)

Experiments:
nPfu DNA polymerase [1] = molecular target: T1, nPfu DNA polymerase (Pyrococcus furiosus, UniProt P61875); assay: PCR using nPfu with oxalate ion and betaine (Example 2-2); format: biochemical; settings: 2 mM potassium oxalate, FIG. 12
T1 construct: α-Type Enzyme (Native Pfu); purchased STRATAGENE
T1 sequence (P61875 1-775): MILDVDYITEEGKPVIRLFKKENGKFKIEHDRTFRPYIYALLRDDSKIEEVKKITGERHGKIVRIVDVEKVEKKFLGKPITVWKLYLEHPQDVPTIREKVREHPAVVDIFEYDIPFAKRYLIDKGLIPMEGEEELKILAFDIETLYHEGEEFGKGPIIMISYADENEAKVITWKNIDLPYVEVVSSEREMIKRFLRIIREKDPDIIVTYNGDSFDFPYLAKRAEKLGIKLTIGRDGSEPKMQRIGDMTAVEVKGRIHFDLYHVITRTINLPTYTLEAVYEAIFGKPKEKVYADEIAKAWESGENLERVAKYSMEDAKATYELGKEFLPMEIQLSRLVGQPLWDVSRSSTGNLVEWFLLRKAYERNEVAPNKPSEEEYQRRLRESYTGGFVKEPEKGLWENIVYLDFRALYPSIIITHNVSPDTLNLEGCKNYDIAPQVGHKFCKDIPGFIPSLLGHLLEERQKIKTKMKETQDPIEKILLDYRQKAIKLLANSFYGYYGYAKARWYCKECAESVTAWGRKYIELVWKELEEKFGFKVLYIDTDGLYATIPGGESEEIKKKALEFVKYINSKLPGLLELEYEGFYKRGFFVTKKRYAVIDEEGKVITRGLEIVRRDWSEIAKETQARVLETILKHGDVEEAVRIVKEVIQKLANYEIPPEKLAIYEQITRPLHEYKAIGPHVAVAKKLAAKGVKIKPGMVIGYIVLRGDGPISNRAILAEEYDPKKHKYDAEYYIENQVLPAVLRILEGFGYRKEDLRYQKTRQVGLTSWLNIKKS
Protocol: Oxalate ion and betaine were investigated for their synergistic effectiveness in amplification of a target DNA which cannot be usually amplified by PCR using nPfu polymerase. Potassium oxalate was added to the PCR buffer (20 mM Tris-HCl(pH: 8.75), 10 mM KCl, 10 mM (NH4)2SO4, 2 mM MgSO41 0.1% Triton X-100, 100 μg/ml BSA) supplied with nPfu (STRATAGENE) to attain a final concentration of 2 mM. Also used were 0.2 mM dNTPs, 0.3 μM of a pair of primers of SEQ ID Nos:16 and 17, and 2.5 U nPfu DNA polymerase. 20 ng of genomic DNA derived from human cell line K562 was used as a template. This reaction mixture was subjected to PCR by using GeneAmp2400 (PE Applied Biosystems) to investigate the influence of varying the concentration of betaine added on the PCR results. The PCR conditions were as follows: 1 preliminary cycle of 94° C. for 2 minutes, and then 35 cycles of 94° C. for 15 seconds, 60° C. for 30 seconds and 68° C. for 8.5 minutes.

EX-Taq DNA polymerase [2] = assay: PCR using EX-Taq with oxalate ion and betaine (Example 2-1); format: biochemical; settings: 2 mM potassium oxalate, 0.5 M betaine, FIG. 11
Protocol: Oxalate ion and betaine were investigated for their synergistic effectiveness in amplification of a target DNA which cannot be usually amplified by PCR using EX-Taq DNA polymerase (TAKARA). Potassium oxalate was added to the PCR buffer attached to EX-Taq DNA polymerase to attain a final concentration of 2 mM. Also used were 0.2 mM dNTPs, 0.3 μM of a pair of primers consisting of the sequences of ID NOs:14 and 15 respectively, and 1.0 U EX-Taq DNA polymerase. 20 ng of genomic DNA derived from human cell line K562 was used as a template. This reaction mixture was subjected to PCR by using GeneAmp2400 (PE Applied Biosystems) to investigate the influence of varying the concentration of betaine added on the PCR results. The PCR conditions were as follows: 1preliminary reaction of 94° C. for 2 minutes, and then 35 cycles of 94° C. for 15 seconds, 60° C. for 30 seconds and 68° C. for 8.5 minutes.

KOD-plus DNA polymerase = molecular target: T2, KOD-plus DNA polymerase (Thermococcus kodakarensis, UniProt P77933, DEL407-766/DEL853-1389); format: biochemical, Thermococcus kodakaraensis KOD1; settings: salt at 6 mM of ion equivalent, FIG. 9
T2 construct: purchased Toyobo
T2 sequence (P77933 other isoform, or with tags, fused parts or gaps DEL407-766/DEL853-1389): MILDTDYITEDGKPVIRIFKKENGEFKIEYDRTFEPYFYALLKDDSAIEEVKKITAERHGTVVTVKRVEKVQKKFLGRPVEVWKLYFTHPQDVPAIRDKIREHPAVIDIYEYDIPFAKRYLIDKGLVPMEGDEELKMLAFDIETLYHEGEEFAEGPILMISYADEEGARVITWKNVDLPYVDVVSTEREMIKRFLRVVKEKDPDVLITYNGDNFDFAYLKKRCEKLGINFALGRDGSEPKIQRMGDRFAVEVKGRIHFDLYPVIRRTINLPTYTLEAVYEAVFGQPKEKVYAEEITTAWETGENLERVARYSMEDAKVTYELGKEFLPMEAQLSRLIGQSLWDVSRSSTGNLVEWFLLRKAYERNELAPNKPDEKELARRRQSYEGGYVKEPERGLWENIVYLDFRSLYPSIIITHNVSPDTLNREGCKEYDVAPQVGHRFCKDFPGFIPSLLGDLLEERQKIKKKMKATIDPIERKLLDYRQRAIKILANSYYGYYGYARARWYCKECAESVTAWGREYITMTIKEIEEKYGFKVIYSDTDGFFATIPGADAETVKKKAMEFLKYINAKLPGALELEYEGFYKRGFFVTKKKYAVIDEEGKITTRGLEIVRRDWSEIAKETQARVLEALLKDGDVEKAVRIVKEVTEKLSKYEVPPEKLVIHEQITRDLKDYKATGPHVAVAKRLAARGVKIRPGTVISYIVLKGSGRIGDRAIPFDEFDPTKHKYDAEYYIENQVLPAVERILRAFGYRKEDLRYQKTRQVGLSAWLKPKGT

nPfu DNA polymerase [3] = molecular target: T1, nPfu DNA polymerase; assay: PCR using nPfu DNA polymerase with added salts (Examples 1-5, 1-6); format: biochemical; settings: salt at 4-6 mM of ion equivalent, FIG. 7
Protocol: The effect produced by the addition of oxalate ion in PCR was investigated using nPfu polymerase. A PCR buffer (20 mM Tris-HCl (pH 8.75), 10 mM KCl, 10 mM (NH4) 2SO4, 2 mM MgSO4, 0.1% Triton X-100, 100 μg/ml BSA) attached to nPfu (STRATAGENE), 0.2 mM of dNTPs, and 0.3 μM of a pair of primers of SEQ ID NOs:12, and 13 were used. PCR was performed by using 2.5 U nPfu DNA polymerase and 20 ng of genomic DNA derived from human cell line K562 as a template, with the influence on the PCR result caused by varying the concentration of oxalate ion being investigated. PCR was performed by using GeneAmp2400 (PE Applied Biosystems) with the following conditions: 1 preliminary reaction of 94° C. for 2 minutes, and then 35 cycles of 94° C. for 15 seconds, 60° C. for 30 seconds and 68° C. for 8 minutes.
Salts (potassium chloride, potassium acetate, potassium oxalate, potassium sulfate) were tested for their effectiveness in PCR using nPfu DNA polymerase under the same conditions as Example 1-5.

EX-Taq DNA polymerase [4] = assay: PCR using EX-Taq DNA polymerase with added salts (Examples 1-1 to 1-3); format: biochemical
Protocol: The effect produced by the addition of oxalate ions was investigated in the PCR using EX-Taq DNA polymerase. A PCR buffer supplied with EX-Taq (TAKARA) and 0.3 μM of a pair of primers of SEQ ID Nos:8 and 9 and 0.2 mM dNTPs were used. PCR was performed by using 1.0 U EX-Taq DNA polymerase and 20 ng of genomic DNA derived from human cell line K562 as a template, with the influence on the PCR result caused by varying the concentration of added oxalate ion being investigated. The PCR conditions were as follows: 1 preliminary reaction of 94° C. for 2 minutes, and then 35 cycles of 94° C. for 15 seconds, 60° C. for 30 seconds and 68° C. for 8.5 minutes. This PCR amplification was performed by using GeneAmp2400 (PE Applied Biosystems).
Salts (potassium chloride, potassium acetate, potassium oxalate, sodium oxalate, potassium sulfate) were investigated for their effectiveness in PCR using EX-Taq DNA polymerase under the same conditions as Example 1. Each salts was used in an amount of 4 to 6 mM of ion equivalent

Row | SMILES | amplification of target DNA (nPfu DNA polymerase [1]) | amplification of target DNA (EX-Taq DNA polymerase [2]) | amplification of target DNA (electrophoresis pattern) (KOD-plus DNA polymerase) | amplification of target DNA (electrophoresis pattern) (nPfu DNA polymerase [3]) | amplification of target DNA (electrophoresis pattern) (EX-Taq DNA polymerase [4]; carboxylate salts, FIG. 3) | amplification of target DNA (electrophoresis pattern) (EX-Taq DNA polymerase [4]; salt at 4 to 6 mM of ion equivalent, FIG. 2)
1 | C[N+](C)(C)CC(=O)[O-] [betaine, trimethylglycine] | amplification of the target DNA was observed | an increase in amplification amount was observed |  |  |  | 
2 | O=C([O-])C(=O)[O-].[K+].[K+] [potassium oxalate] |  |  | Amplification was observed | amplification of the target DNA observed | amplification of the target DNA was observed | Amplification was observed
